Data reported in paper PMC8330957 (Nature genetics, 2020).
“Also recorded” adds a separate entry of the source.

Legend:
[1] = tested on: JURKAT cells; test: RNA-seq of JURKAT cells treated with UNC1999; assay type: cell-based, human; conditions: three-day treatment with 5 μM UNC1999
[2] = tested on: JURKAT cells; test: RT-qPCR of H3K27me3-marked genes after UNC1999 treatment, JURKAT; assay type: cell-based, human; conditions: 5 μM UNC1999, three days, three independent experiments
[3] = tested on: CUTLL1 cells; test: RT-qPCR of H3K27me3-marked genes after UNC1999 treatment, CUTLL1; assay type: cell-based, human; conditions: 5 μM UNC1999, three days, three independent experiments
[4] = tested on: BAHCC1 (chromatin-bound), 293 cells; test: Cell fractionation and immunoblotting of chromatin-bound BAHCC1; assay type: cell-based; conditions: immunoblotting after cell fractionation, UNC1999 versus DMSO
[5] = tested on: 3×Flag-BAHCC1 at TSS of target genes, JURKAT cells; test: Flag ChIP-qPCR of BAHCC1 binding to target genes; assay type: cell-based, human; conditions: UNC1999 versus DMSO, three independent experiments

## CCCc1cc(C)[nH]c(=O)c1CNC(=O)c1cc(-c2ccc(N3CCN(C(C)C)CC3)nc2)cc2c1cnn2C(C)C [UNC1999]
[1]
  overlap of UNC1999-derepressed DEGs with those caused by BAHCC1 loss: significant overlapping; also recorded: significantly overlapped
[2]
  expression of examined H3K27me3-marked genes: re-activation
[3]
  expression of examined H3K27me3-marked genes: re-activation
[4]
  overall BAHCC1 binding to chromatin: impaired
[5]
  BAHCC1 binding to its target genes: significantly reduced
